Target: T1, human isoforms of GABAA (α3ß2γ2) receptors (Homo sapiens, UniProt P18507+P34903)
T1 construct: expressed in transfected cells
Assay: Potentiation of GABA-evoked currents at GABAA (α3β2γ2) receptors, automated patch-clamp (QPatch), Example B1
Format: cell-based
Conditions: for Emax: Emax of potentiation, Ltk cells expressing GABAA α3β2γ2, 2.0 μM GABA, whole-cell, holding potential −80 mV, read-out: Max %
Method: The ability of compounds exemplified above to potentiate the effect of GABA on GABAA receptors (α3β2γ2) was determined using one or more of the methods described below.
Ltk cells stably expressing the human isoforms of GABAA (α3ß2γ2) receptors were used together with submaximal GABA concentrations to investigate the modulatory effects of the test items. Cells were incubated at 37° C. in a humidified atmosphere with 5% CO2 (rel. humidity about 95%). The cells were continuously maintained in and passaged in sterile culture flasks containing a 1:1 mixture of Dulbecco's modified eagle medium and nutrient mixture D-MEM/F-12 (1×, liquid, with L-Glutamine), supplemented with 10% fetal bovine serum and 1.0% Penicillin/Streptomycin solution. The complete medium as indicated above was supplemented with neomycin. In general, cells were passaged at a confluence of about 80 to 90%. For electrophysiological measurements cells were harvested at a confluence of about 80 to 90% from sterile culture flasks containing culture complete medium. Cells were transferred as suspension in PBS to the QPatch 16X or QPatch HTX system to the centrifuge/washer directly. Expression of GABA receptor was induced by adding Dexamethasone to the cells for 24 to 48 h before experimentation.
Modulatory effects of the compounds of this disclosure were investigated using cells stably transfected with GABA-activated channels of the GABAA (α3ß2γ2) subtype together with submaximal GABA concentrations. Expression of GABA receptor were induced by adding Dexamethasone to the cells for 24 to 48 h before experimentation. In general, cells were passaged at a confluence of about 80 to 90%. For electrophysiological measurements cells were harvested at a confluence of about 80 to 90% from sterile culture flasks containing culture complete medium. Cells were transferred as suspension in PBS to the QPatch 16X or QPatch HTX system to the centrifuge/washer directly. Cells were incubated at 37° C. in a humidified atmosphere with 5% CO2 (rel. humidity about 95%). The cells were continuously maintained in and passaged in sterile culture flasks containing a 1:1 mixture of Dulbecco's modified eagle medium and nutrient mixture D-MEM/F-12 (1×, liquid, with L-Glutamine), supplemented with 10% foetal bovine serum and 1.0% Penicillin/Streptomycin solution and neomycin. The 1× bath solution was made at least every 5 days out of a sterile 10× bath solution, which had been prepared prior to the experimental start of the present study and stored at 1° C. to 9° C. The final bath solution included Sodium Chloride 137 mM, Potassium Chloride 4 mM, Calcium Chloride 1.8 mM, Magnesium Chloride 1 mM, HEPES 10 mM, D-Glucose 10 mM, pH (NaOH) 7.4. The 1× intracellular solution was thawed every day and includes Potassium Chloride 130 mM, Magnesium Chloride 1 mM, Mg-ATP 5 mM, HEPES 10 mM, EGTA 5 Mm, pH (KOH) 7.2. Automated patch-clamping: Cells were transferred as suspension in serum-free medium to the QPatch HTX system and kept in the cell storage tank during experiments. All solutions applied to cells including the intracellular solution were maintained at room temperature (19° C. to 30° C.). After formation of a Gigaohm seal between the patch electrodes and transfected individual Ltk cells were ruptured to assure electrical access to the cell interior (whole-cell patch-configuration). Inward currents were measured upon application of 2.0 μM GABA to patch-clamped cells for 4 s. During the entire experiment the cells were voltage-clamped at a holding potential of −80 mV. For the analysis of test items, GABAA receptors were stimulated by 2.0 μM GABA and test item combinations described below. Thirty-second prewash steps with test items was performed in between two agonist applications. […]

T1 sequence (P34903 29-492): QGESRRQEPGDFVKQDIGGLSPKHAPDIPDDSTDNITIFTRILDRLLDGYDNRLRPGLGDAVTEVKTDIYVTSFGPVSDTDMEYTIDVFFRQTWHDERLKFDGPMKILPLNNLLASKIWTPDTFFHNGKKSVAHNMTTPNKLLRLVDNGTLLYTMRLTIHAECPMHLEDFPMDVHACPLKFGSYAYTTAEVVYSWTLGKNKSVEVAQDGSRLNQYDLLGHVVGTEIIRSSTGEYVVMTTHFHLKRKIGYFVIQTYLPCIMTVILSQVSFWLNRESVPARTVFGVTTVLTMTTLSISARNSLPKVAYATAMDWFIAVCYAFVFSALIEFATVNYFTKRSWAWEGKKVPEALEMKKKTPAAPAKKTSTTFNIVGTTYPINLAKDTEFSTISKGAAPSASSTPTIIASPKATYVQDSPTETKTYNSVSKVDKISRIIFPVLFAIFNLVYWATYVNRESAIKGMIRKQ
T1 sequence (P47870 25-512 partner limits assumed): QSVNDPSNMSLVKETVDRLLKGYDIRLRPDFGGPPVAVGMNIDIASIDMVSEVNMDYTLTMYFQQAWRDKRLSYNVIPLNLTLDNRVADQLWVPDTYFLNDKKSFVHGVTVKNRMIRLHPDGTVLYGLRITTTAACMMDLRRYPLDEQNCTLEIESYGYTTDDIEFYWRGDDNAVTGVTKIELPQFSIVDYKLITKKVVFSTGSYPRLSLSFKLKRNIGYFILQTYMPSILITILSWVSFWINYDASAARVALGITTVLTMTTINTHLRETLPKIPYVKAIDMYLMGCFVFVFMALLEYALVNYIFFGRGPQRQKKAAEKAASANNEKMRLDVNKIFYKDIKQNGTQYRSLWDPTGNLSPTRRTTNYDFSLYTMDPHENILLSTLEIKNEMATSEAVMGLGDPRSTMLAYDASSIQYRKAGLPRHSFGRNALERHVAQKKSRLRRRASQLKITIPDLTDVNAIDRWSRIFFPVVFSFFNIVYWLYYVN
T1 sequence (P18507 40-475): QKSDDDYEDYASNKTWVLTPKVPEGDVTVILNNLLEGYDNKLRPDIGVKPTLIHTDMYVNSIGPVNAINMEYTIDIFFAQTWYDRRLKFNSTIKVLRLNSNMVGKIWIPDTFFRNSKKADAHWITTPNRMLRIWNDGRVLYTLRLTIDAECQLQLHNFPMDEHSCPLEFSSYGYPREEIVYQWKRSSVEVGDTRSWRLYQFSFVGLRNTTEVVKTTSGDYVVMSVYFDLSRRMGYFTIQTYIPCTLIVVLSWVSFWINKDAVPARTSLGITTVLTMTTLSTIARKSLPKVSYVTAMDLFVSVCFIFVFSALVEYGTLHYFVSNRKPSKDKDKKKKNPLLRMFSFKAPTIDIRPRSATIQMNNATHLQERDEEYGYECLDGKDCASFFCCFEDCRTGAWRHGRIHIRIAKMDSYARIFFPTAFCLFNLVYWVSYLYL

SMILES | EC50 [nM] | Emax [%]
CN(C)C(=O)c1cn2c(n1)CN=C(c1ccccc1F)c1cc(Cl)ccc1-2 [Compound 241, 8-chloro-6-(2-fluorophenyl)-N,N-dimethyl-4H-imidazo[1,2-a][1,4]benzodiazepine-2-carboxamide] | < 50 | > 100
O=C(O)c1nc2n(c1CN1CCC1)-c1ccc(Cl)cc1C(c1ccccc1F)=NC2 [Compound 243, 1-(azetidin-1-ylmethyl)-8-chloro-6-(2-fluorophenyl)-4H-benzo[f]imidazo[1,2-a][1,4]diazepine-2-carboxylic acid] | > 100 | > 100
O=C(O)c1nc2n(c1CNC1CCCCC1)-c1ccc(Cl)cc1C(c1ccccc1F)=NC2 [Compound 244, 8-chloro-1-((cyclohexylamino)methyl)-6-(2-fluorophenyl)-4H-benzo[f]imidazo[1,2-a][1,4]diazepine-2-carboxylic acid] | > 100 | > 100
O=C(O)c1nc2n(c1CN1CCOCC1)-c1ccc(Cl)cc1C(c1ccccc1F)=NC2 [Compound 245, 8-chloro-6-(2-fluorophenyl)-1-(morpholinomethyl)-4H-benzo[f]imidazo[1,2-a] [1,4]diazepine-2-carboxylic acid] | > 100 | > 100
O=C(O)c1nc2n(c1CN1CCCCC1)-c1ccc(Cl)cc1C(c1ccccc1F)=NC2 [Compound 246, 8-chloro-6-(2-fluorophenyl)-1-(piperidin-1-ylmethyl)-4H-benzo[f]imidazo[1,2-a][1,4]diazepine-2-carboxylic acid] | > 100 | 50 to 100
O=C(O)c1nc2n(c1CN1CCCC1)-c1ccc(Cl)cc1C(c1ccccc1F)=NC2 [Compound 247, 8-chloro-6-(2-fluorophenyl)-1-(pyrrolidin-1-ylmethyl)-4H-benzo[f]imidazo[1,2-a][1,4]diazepine-2-carboxylic acid] | > 100 | 50 to 100
Nc1c(C(=O)O)nc2n1-c1ccc(Cl)cc1C(c1ccccc1F)=NC2 [Compound 249, 3-Amino-12-chloro-9-(2-fluorophenyl)-2,5,8-triazatricyclo[8.4.0.0^2,6]tetradeca-1 (10),3,5,8,11,13-hexaene-4-carboxylic acid] |  | > 100

From patent US20260042763A1, “PE[…] POSITIVE […] THE TREATMENT OF IRRITABLE BOWEL SYNDROME AND OTHER AILMENTS OF THE PERIPHERAL NERVOUS SYSTEM” (The Johns Hopkins University, priority 2022, published 2026)
